What is called Ki is the equilibrium dissociation constant of an inhibitor or competing ligand from its target.

The target in assay [1] is Metabotropic glutamate receptor 1 (Homo sapiens, UniProt Q13255).
Assay [2] deals with Metabotropic glutamate receptor 5 (Homo sapiens, UniProt P41594).
Metabotropic glutamate receptor 5, sequence (P41594 whole entry): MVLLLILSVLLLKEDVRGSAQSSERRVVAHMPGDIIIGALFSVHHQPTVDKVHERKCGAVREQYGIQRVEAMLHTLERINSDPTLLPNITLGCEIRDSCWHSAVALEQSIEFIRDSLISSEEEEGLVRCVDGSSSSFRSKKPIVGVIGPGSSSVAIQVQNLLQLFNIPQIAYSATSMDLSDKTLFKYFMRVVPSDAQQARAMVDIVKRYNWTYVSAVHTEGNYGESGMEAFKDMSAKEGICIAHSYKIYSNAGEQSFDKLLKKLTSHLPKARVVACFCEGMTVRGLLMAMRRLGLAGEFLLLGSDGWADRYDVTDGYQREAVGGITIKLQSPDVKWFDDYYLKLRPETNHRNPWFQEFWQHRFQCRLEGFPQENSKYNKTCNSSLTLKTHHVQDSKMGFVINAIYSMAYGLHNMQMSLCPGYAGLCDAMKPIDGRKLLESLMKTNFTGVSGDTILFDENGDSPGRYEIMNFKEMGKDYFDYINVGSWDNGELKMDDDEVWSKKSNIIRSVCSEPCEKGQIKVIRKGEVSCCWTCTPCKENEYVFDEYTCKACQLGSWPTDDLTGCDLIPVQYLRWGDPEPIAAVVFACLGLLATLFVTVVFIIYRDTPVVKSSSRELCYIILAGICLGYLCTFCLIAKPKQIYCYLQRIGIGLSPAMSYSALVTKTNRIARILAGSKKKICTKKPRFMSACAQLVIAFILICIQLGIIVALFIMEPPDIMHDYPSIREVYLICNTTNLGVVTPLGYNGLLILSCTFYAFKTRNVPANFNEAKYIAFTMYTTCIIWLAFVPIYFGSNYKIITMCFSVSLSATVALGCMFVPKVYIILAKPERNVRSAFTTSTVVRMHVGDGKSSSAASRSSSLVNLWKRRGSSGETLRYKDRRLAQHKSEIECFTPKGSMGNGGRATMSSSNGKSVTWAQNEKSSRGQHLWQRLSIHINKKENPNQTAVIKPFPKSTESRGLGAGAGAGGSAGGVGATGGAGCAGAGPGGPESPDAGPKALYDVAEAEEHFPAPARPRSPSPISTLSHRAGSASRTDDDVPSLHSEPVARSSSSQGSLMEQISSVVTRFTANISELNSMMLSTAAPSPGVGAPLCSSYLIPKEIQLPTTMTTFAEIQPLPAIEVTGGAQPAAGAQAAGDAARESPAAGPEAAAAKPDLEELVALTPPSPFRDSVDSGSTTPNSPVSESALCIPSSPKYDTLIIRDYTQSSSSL

Metabotropic glutamate receptor 1, sequence (Q13255 whole entry): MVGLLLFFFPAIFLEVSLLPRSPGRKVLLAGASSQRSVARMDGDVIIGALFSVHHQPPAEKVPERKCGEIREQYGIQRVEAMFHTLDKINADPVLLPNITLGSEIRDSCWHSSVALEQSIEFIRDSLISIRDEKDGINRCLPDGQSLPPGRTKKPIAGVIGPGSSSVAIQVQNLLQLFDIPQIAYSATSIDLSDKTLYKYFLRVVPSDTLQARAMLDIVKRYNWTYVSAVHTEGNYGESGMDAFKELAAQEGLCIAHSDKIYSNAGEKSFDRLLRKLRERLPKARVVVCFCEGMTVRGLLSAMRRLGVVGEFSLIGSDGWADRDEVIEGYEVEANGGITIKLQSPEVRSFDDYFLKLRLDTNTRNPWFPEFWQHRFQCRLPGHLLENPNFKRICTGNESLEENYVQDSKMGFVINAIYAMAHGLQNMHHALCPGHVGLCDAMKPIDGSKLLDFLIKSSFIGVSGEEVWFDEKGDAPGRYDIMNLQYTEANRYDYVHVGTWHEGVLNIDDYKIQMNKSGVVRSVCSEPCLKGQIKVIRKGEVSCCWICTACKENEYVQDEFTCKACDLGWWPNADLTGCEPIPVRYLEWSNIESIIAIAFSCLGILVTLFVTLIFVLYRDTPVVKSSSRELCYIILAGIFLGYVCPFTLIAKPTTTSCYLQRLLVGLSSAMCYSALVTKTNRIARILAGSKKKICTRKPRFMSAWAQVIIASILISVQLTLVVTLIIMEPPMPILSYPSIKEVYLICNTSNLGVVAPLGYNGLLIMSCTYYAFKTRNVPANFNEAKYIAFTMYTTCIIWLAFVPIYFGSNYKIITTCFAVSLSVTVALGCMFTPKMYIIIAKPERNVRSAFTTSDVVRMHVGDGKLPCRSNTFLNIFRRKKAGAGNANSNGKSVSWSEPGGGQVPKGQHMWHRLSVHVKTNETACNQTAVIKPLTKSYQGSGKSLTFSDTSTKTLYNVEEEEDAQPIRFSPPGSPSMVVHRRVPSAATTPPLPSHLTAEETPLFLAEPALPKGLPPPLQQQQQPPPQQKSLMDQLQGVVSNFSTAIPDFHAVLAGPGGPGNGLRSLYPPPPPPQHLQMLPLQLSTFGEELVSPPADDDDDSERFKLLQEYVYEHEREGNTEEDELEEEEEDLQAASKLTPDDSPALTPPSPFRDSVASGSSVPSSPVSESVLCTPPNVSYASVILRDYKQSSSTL

With `N[C@@H](CCP(=O)(O)O)C(=O)O`, the Ki in assay [1] and in assay [2] was > 10 µM each time.

`NC(C(=O)O)c1ccc(C(=O)O)c(O)c1` (stereo unspecified) showed a Ki in assay [2] of 2.5 µM. That is a single-digit micromolar value.

In the case of `C[C@@](N)(C(=O)O)c1ccc(C(=O)O)cc1` (racemic), the Ki in assay [1] and in assay [2] was > 10 µM each time.

Take `NC1(C(=O)O)CCc2cc(C(=O)O)ccc21` (racemic) [AIDA]: the Ki in assay [1] and in assay [2] was > 10 µM in each case.

As to `N[C@@]1(C(=O)O)CC[C@H](C(=O)O)C1` [1S, 3R-ACPD], in assay [2], affinity was put at a Ki of 2.1 µM.

Consider `N[C@@H](Cn1oc(=O)[nH]c1=O)C(=O)O` [2-amino-3-(3,5-dioxo[1,2,4]oxadiazolidin-2-yl)propionic acid], for which, in assay [2], the Ki was 0.029 µM.

In the case of `Cc1cc(C(N)C(=O)O)ccc1C(=O)O` (stereo unspecified) [2Me4CPG], the inhibitory constant (Ki) was 0.7 µM in assay [1] and > 10 µM in assay [2].

On to `Cc1onc(O)c1CC(N)C(=O)O` (stereo not drawn) [(RS)-2-amino-3-(3-hydroxy-5-methylisoxazol-4-yl)-propionicacid], for which the Ki in assay [1] and in assay [2] was > 10 µM each time.

`N[C@H](C(=O)O)c1cccc(O)c1` [(S)-3-Hydroxyphenylglycine]: the Ki is > 10 µM in assay [1] and 8.4 µM in assay [2].

On to `N[C@@H](C(=O)O)c1ccc(C(=O)O)cc1` [(S)-4CPG], for which the figures for the inhibitory constant (Ki) in assay [1] and in assay [2] were 3.7 µM and > 10 µM, respectively.

Turning to `NC(C(=O)O)c1cc(=O)[nH]o1` (stereo unspecified) [Amino-(3-hydroxy-isoxazol-5-yl)-acetic acid(Ibotenic acid)], the Ki in assay [1] was found to be 1.2 µM; in assay [2], 1.9 µM.

For the compound `N[C@H](CP(=O)(O)O)C(=O)O` [CAS_23052-80-4], the Ki in assay [1] and in assay [2] was > 10 µM throughout.

In the case of `Nc1nc(O)c2ncn(COC(CO)CO)c2n1` [CAS_82410-32-0], the Ki in assay [1] was 0.9 µM; in assay [2] it was 3.9 µM.

For `NC(C(=O)O)c1cc(O)ccc1Cl` (stereo unspecified) [CHPG], the Ki in assay [1] and in assay [2] was > 10 µM each time.

`N[C@H](C(=O)O)C1[C@@H](C(=O)O)[C@@H]1C(=O)O` (stereo partly specified) [DCG-IV]: the Ki in assay [1] and in assay [2] was > 10 µM in each case.

As for `N[C@H](C(=O)O)[C@H]1C[C@H]1C(=O)O` [L-CCG-IV], the Ki in assay [1] turned out to be 2.3 µM; in assay [2], 1.5 µM.

In the case of `O=c1nc2c3cc(-n4ccnc4)c([N+](=O)[O-])cc3[nH]c(=O)n2[nH]1` [Ro-48-8587], the Ki in assay [1] and in assay [2] was > 10 µM in each case.
